Laboratory results reported in PubChem BioAssay AID1963832 (Molecular Pharmacology Branch, DTP, NCI, 2024).

System: 885724-159-R-J1-PDC complex spheroid viability
Experiment: Anticancer human tumor 885724-159-R-J1-PDC patient-derived pancreatic adenocarcinoma cell line growth inhibition [POLQ]
Conditions: for IC50: curve of first compound; for viability, T/C: stronger effect = lower value
Description: Multicellular complex tumor spheroid response to Polymerase (POL) inhibitors (novobiocin, ART-558, RP6685) in combination with a variety of drugs and investigational agents in selected tumor cell lines
The POL inhibitors (novobiocin, ART-558, and RP6685) were evaluated both individually and in combination with standard of care and investigational anticancer small molecules within a complex spheroid model of solid tumors. . Complex spheroids include a stromal component modeled by human endothelial cells (HUVEC) and fibroblasts modeled by human mesenchymal stem cells (MSCs). The concentration ranges selected for each drug and investigational agent were based upon clinically achievable concentrations if the clinical Cmax of the agent was known.
Compounds. The drugs and investigational agents: novobiocin (NSC847541), ART-558 (NSC835418), RP-6685 (NSC848927), peposertib (NSC802822), ceralasertib (NSC780249), elimusertib (NSC800525), camonsertib (NSC841442), AZD-1390 (NSC803789), olaparib (NSC753686), talazoparib (NSC767125), rucaparib (NSC756644), sotorasib (NSC818433), MRTX-1133 (NSC836407), SN-38 (NSC673596), topotecan (NSC609699), epotoside (NSC141540), doxorubicin (NSC123127), gemcitabine (NSC613327), 5-fluorouracil (NSC19893), paclitaxel (NSC125973), vemurafenib (NSC761431), MSA-2 (NSC828583), SN-011 (NSC837082), adavosertib (NSC754352), prexasertib (NSC758257), carboplatin (NSC241240) and oxaliplatin (NSC266046), were obtained from the National Cancer Institute (NCI) Developmental Therapeutics Program Chemical Repository (21). The FDA-approved anticancer drug set is available from the Developmental Therapeutics Program at https://dtp.cancer.gov/organization/dscb/obtaining/. […] The stock solutions were prepared in dimethyl sulfoxide (DMSO, Sigma-Aldrich, St. Louis, MO, cat. D2650), except for the platinum compounds which were prepared in saline (Quality Biological, Gaithersburg, MD, cat. 114-055-101), at 800-fold the tested concentration and stored at -70 degrees C prior to their use. All drugs and investigational agents were tested over a range starting from a high concentration at or near the clinical Cmax and decreasing in half-log increments. If the clinical Cmax for an agent had not been determined, the highest concentration tested was 10 microM, except for SN-38, which was tested at a high concentration of 1 microM.
Cell Culture. All cells were maintained in an incubator at 37 degrees C and 5% CO2 with 95% humidity. The PDC lines were cultured according to standard operating procedures established by the NCI PDMR (https://pdmr.cancer.gov). Table 3 of the manuscript, lists the cell lines along with the number of the three cell types plated to form the mct-spheroids and media for tumor cell growth. After thawing, all PDC lines, except 997537-175-T-J1-PDC and 415267-285-R-J2-PDC, were cultured in Matrigel-coated flasks prepared with a working solution of 1X Ham's F-12 nutrient mix, without supplementation (Thermo Fisher Scientific, cat. 11765054), 100 U/mL penicillin-streptomycin (Thermo Fisher Scientific, cat. 15140122), and 2.5% Matrigel (Corning Inc., Corning, NY, cat. 354248) for the first three passages. The two PDC lines 997537-175-T-J1-PDC and 415267-285-R-J2-PDC were cultured on uncoated flasks. The 857933-349-R-J2-PDC line was cultured in 6C/Colon 1B media containing advanced DMEM/F-12 (Thermo Fisher Scientific, cat. 12634028), 10 mM HEPES (Thermo Fisher Scientific, cat. 15630080), 1X GlutaMAX supplement (Thermo Fisher Scientific, cat. 35050061), 0.1 mg/mL primocin (InvivoGen, San Diego, CA, cat. ant-pm-2), 10% defined fetal bovine serum, heat inactivated (HyClone Laboratories Inc., Logan, UT, cat. SH30070.03HI), 50% L-WRN conditioned media (ATCC, cat. CRL-3276), 1.25 mM N-Acetyl-L-cysteine (Sigma-Aldrich, cat. A9165), 10 mM nicotinamide (Sigma-Aldrich, cat. N0636), 1X B-27 supplement (Thermo Fisher Scientific, cat. 17504044), 1X N-2 supplement (Thermo Fisher Scientific, cat. […]

[1] = second compound 0.0316 µM, first compound 0.0316 µM
[2] = second compound 0.0316 µM, first compound 0.1 µM
[3] = second compound 0.0316 µM, first compound 0.316 µM
[4] = second compound 0.0316 µM, first compound 1 µM
[5] = second compound 0.0316 µM, first compound 3.16 µM
[6] = second compound 0.0316 µM, first compound 10 µM
[7] = second compound 0.1 µM, first compound 0.0316 µM
[8] = second compound 0.1 µM, first compound 0.1 µM
[9] = second compound 0.1 µM, first compound 0.316 µM
[10] = second compound 0.1 µM, first compound 1 µM
[11] = second compound 0.1 µM, first compound 3.16 µM
[12] = second compound 0.1 µM, first compound 10 µM
[13] = second compound 0.316 µM, first compound 0.0316 µM
[14] = second compound 0.316 µM, first compound 0.1 µM
[15] = second compound 0.316 µM, first compound 0.316 µM
[16] = second compound 0.316 µM, first compound 1 µM
[17] = second compound 0.316 µM, first compound 3.16 µM
[18] = second compound 0.316 µM, first compound 10 µM
[19] = second compound 1 µM, first compound 0.0316 µM
[20] = second compound 1 µM, first compound 0.1 µM
[21] = second compound 1 µM, first compound 0.316 µM
[22] = second compound 1 µM, first compound 1 µM
[23] = second compound 1 µM, first compound 3.16 µM
[24] = second compound 1 µM, first compound 10 µM
[25] = second compound 3.16 µM, first compound 0.0316 µM
[26] = second compound 3.16 µM, first compound 0.1 µM
[27] = second compound 3.16 µM, first compound 0.316 µM
[28] = second compound 3.16 µM, first compound 1 µM
[29] = second compound 3.16 µM, first compound 3.16 µM
[30] = second compound 3.16 µM, first compound 10 µM
[31] = second compound 10 µM, first compound 0.0316 µM
[32] = second compound 10 µM, first compound 0.1 µM
[33] = second compound 10 µM, first compound 0.316 µM
[34] = second compound 10 µM, first compound 1 µM
[35] = second compound 10 µM, first compound 3.16 µM
[36] = second compound 10 µM, first compound 10 µM
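Note: spheroids exposed to compounds for 7 days.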

O=C(c1cc(Cc2n[nH]c(=O)c3ccccc23)ccc1F)N1CCN(C(=O)C2CC2)CC1 + COC1C(OC(N)=O)C(O)C(Oc2ccc3c(O)c(NC(=O)c4ccc(O)c(CC=C(C)C)c4)c(=O)oc3c2C)OC1(C)C
IC50 (second compound 0.0316 µM): > 10 µM
IC50 (second compound 0.1 µM): > 10 µM
IC50 (second compound 0.316 µM): > 10 µM
IC50 (second compound 1 µM): > 10 µM
IC50 (second compound 3.16 µM): > 10 µM
IC50 (second compound 10 µM): > 10 µM
viability, T/C [1]: 101%
viability, T/C [2]: 93.9%
viability, T/C [3]: 91.4%
viability, T/C [4]: 88.3%
viability, T/C [5]: 90.8%
viability, T/C [6]: 78.9%
viability, T/C [7]: 97.4%
viability, T/C [8]: 85.9%
viability, T/C [9]: 86%
viability, T/C [10]: 88%
viability, T/C [11]: 86.3%
viability, T/C [12]: 83.9%
viability, T/C [13]: 94.8%
viability, T/C [14]: 91.4%
viability, T/C [15]: 90.3%
viability, T/C [16]: 89.2%
viability, T/C [17]: 85.5%
viability, T/C [18]: 75.7%
viability, T/C [19]: 85.8%
viability, T/C [20]: 89.6%
viability, T/C [21]: 89.5%
viability, T/C [22]: 95.8%
viability, T/C [23]: 85.4%
viability, T/C [24]: 79.9%
viability, T/C [25]: 96.4%
viability, T/C [26]: 85.7%
viability, T/C [27]: 104%
viability, T/C [28]: 85.5%
viability, T/C [29]: 92.8%
viability, T/C [30]: 79.7%
viability, T/C [31]: 96.3%
viability, T/C [32]: 83%
viability, T/C [33]: 92.4%
viability, T/C [34]: 85.1%
viability, T/C [35]: 91.1%
viability, T/C [36]: 69.9%

O=c1[nH]cc(F)c(=O)[nH]1 + COC1C(OC(N)=O)C(O)C(Oc2ccc3c(O)c(NC(=O)c4ccc(O)c(CC=C(C)C)c4)c(=O)oc3c2C)OC1(C)C
IC50 (second compound 0.0316 µM): > 10 µM
IC50 (second compound 0.1 µM): > 10 µM
IC50 (second compound 0.316 µM): > 10 µM
IC50 (second compound 1 µM): > 10 µM
IC50 (second compound 3.16 µM): > 10 µM
IC50 (second compound 10 µM): > 10 µM
viability, T/C [1]: 103%
viability, T/C [2]: 104%
viability, T/C [3]: 91.6%
viability, T/C [4]: 95.6%
viability, T/C [5]: 89.4%
viability, T/C [6]: 80.5%
viability, T/C [7]: 117%
viability, T/C [8]: 96.3%
viability, T/C [9]: 101%
viability, T/C [10]: 97%
viability, T/C [11]: 88.4%
viability, T/C [12]: 67.5%
viability, T/C [13]: 99%
viability, T/C [14]: 91.9%
viability, T/C [15]: 103%
viability, T/C [16]: 93.8%
viability, T/C [17]: 80.3%
viability, T/C [18]: 73.6%
viability, T/C [19]: 119%
viability, T/C [20]: 108%
viability, T/C [21]: 100%
viability, T/C [22]: 92.7%
viability, T/C [23]: 89.6%
viability, T/C [24]: 71.8%
viability, T/C [25]: 104%
viability, T/C [26]: 94.1%
viability, T/C [27]: 92.3%
viability, T/C [28]: 98.8%
viability, T/C [29]: 83.5%
viability, T/C [30]: 73.8%
viability, T/C [31]: 113%
viability, T/C [32]: 86.8%
viability, T/C [33]: 92.9%
viability, T/C [34]: 96.4%
viability, T/C [35]: 83.2%
viability, T/C [36]: 70.8%
